Test system: HaCaT keratinocytes exposed to UVA
Assay: Antioxidant/free-radical scavenging activity with respect to UVA oxidative stress induced on keratinocytes (DCFH-DA fluorescent probe)
Type: cell-based
Details: 30 μM, 24 hours pre-incubation, UVA 2 J/cm^2, DCF fluorescence
Method: Method for Evaluating the Antioxidant/Free-Radical Scavenging Activity of the Polymers of the Invention with Respect to a UVA Oxidative Stress Induced on Keratinocytes
The technique for evaluating the photoprotection was carried out according to a well-known method (J. of Photochemistry and Photobiology B: Biology 57 (2000) 102-112 TOBI et al: Glutathione modulates the level of free radicals produced in UVA irradiated cells). This technique used a fluorescent probe, a marker for intracellular global oxidative stress, 2′-7′-dichlorofluorescin diacetate (DCFH-DA).
The use of DCFH-DA as a marker of the oxidative stress rests on its physicochemical properties. It is an apolar and non-ionic molecule capable of diffusing through cell membranes. Once inside the cell, DCFH-DA will be hydrolysed by intracellular esterases to a non-fluorescent compound: DCFH or 2,7-dichlorofluorescin. In the presence of activated oxygen species, DCFH is rapidly oxidized to a highly fluorescent compound: DCF or 2,7-dichlorofluorescein.
Three compounds were tested: hexadimethrine chloride (MEXOMERE PO from Chimex corresponding to a polycondensate of formula (I)), citric acid and glycine (0.0001% w/v for the MEXOMERE PO, 30 μM for the citric acid and the glycine). […]
The fluorescence of DCF was evaluated immediately after the exposure to UVA, by spectrofluorimetry (excitation: 480 nm; emission: 530 nm).

`O=C(O)CC(O)(CC(=O)O)C(=O)O` [Citric acid, citric acid] was tested, and the “level of protection (antioxidant efficacy with respect to UVA oxidative stress)” value was about 18%.
For `NCC(=O)O` [glycine], the “level of protection (antioxidant efficacy with respect to UVA oxidative stress)” value was about 15%.

Source: patent US20090214459A1, “METHOD OF USING CERTAIN CATIONIC POLYMERS AS ANTIOXIDANTS OR FREE-RADICAL SCAVENGERS” (priority 2008, published 2009)
